Results on three compounds are retold here after patent US7144890B2, “Spiro-pentacyclic compounds” (Hoffman-La Roche Inc., priority 2004, dated 2006).

Each structure is given as a SMILES string.

The IC50 is the point on the concentration scale where inhibition reaches its midpoint.

The target of assay [1] is T1, human cannabis CB1 receptor (Homo sapiens, UniProt P21554).
T1 construct: expressed in transfected cells; host or cells: human embryonic kidney (HEK) cells, Semliki Forest Virus system, membrane preparation
Nature of the assay: Affinity for cannabinoid CB1 receptor, [3H]-CP-55,940 radioligand binding on HEK cell membranes. Particulars: affinity for the CB1 receptor. On the procedure:
The affinity of the compounds of the invention for cannabinoid CB1 receptors was determined using membrane preparations of human embryonic kidney (HEK) cells in which the human cannabis CB1 receptor is transiently transfected using the Semliki Forest Virus system in conjunction with [3H]-CP-55,940 as radioligand. After incubation of a freshly prepared cell membrane preparation with the [3H]-ligand, with or without addition of compounds of the invention, separation of bound and free ligand was performed by filtration over glassfiber filters. Radioactivity on the filter was measured by liquid scintillation counting.

The conditions of assay [2]: doses of 5, 10 and 20 mg daily; cited from earlier work.

T1 sequence (P21554 whole entry): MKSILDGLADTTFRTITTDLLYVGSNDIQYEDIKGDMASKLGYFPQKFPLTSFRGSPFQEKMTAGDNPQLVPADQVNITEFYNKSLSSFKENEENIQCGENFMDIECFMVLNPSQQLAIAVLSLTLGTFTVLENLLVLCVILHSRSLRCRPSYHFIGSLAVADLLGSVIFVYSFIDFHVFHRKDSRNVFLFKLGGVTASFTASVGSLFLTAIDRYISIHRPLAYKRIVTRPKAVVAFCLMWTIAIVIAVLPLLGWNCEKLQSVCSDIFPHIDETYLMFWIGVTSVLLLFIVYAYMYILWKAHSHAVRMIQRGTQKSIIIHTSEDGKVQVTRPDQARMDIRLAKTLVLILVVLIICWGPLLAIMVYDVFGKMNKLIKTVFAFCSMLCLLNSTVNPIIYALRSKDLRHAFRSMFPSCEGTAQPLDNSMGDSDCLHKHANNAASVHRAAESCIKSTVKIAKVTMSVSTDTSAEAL

In turn, `O=C(c1cc2c(cc1F)OC1(O2)c2ccc(Cl)cc2CCc2cc(Cl)ccc21)N1CCOCC1` [Example 1, 4-[(2′,8′-dichloro-6-fluoro-10′,11′-dihydrospiro[1,3-benzodioxole-2,5′-[5H]dibenzo[a,d]cyclohepten]-5-yl)carbonyl]-morpholine] returned an IC50 in assay [1] of 0.013 µM.
With `O=C(c1ccc2c(c1)OC1(O2)c2ccc(Cl)cc2CCc2cc(Cl)ccc21)C1CCNCC1` [Example 2, 4-[(2′,8′-dichloro-10′,11′-dihydrospiro[1,3-benzodioxole-2,5′-[5H]dibenzo[a,d]cyclohepten]-5-yl)carbonyl]-piperidine], in assay [1], the IC50 turned out to be 0.018 µM.
`Cc1c(C(=O)NN2CCCCC2)nn(-c2ccc(Cl)cc2Cl)c1-c1ccc(Cl)cc1` [SR 141716]: the “body weight compared to placebo” value in assay [2] is “significantly reduced body weight”.
